This assay has as its target T1, BRM (Homo sapiens, UniProt P51531).
T1 construct: Western Blot Screen of BRM Degradation in SW1573 Cells; endogenous in cells; host or cells: SW1573 cells
Briefly: BRM degradation (Dmax and DC50) in SW1573 cells, Western blot screen / In-Cell Western screen. Conditions: overnight (18-20 hours) treatment; for Dmax: read-out: Dmax (%)** (% degraded). The format is cell-based. In a few lines: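 SW1573 cells were treated with compound for 18–20 h (final 0.1% DMSO). BRM was quantified either by Western blot of RIPA lysates or by fixed-cell In-Cell Western (LI-COR, 800/680 nm), each normalised to alpha-tubulin, giving Dmax and DC50.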
A general note: A western blot detects proteins with antibodies after separation by electrophoresis.

As a reminder, the DC50 is the concentration giving 50% degradation. Lower therefore signals a more potent degrader. As usually defined, the Dmax is the largest share of the target that was removed.

T1 sequence (P51531 whole entry): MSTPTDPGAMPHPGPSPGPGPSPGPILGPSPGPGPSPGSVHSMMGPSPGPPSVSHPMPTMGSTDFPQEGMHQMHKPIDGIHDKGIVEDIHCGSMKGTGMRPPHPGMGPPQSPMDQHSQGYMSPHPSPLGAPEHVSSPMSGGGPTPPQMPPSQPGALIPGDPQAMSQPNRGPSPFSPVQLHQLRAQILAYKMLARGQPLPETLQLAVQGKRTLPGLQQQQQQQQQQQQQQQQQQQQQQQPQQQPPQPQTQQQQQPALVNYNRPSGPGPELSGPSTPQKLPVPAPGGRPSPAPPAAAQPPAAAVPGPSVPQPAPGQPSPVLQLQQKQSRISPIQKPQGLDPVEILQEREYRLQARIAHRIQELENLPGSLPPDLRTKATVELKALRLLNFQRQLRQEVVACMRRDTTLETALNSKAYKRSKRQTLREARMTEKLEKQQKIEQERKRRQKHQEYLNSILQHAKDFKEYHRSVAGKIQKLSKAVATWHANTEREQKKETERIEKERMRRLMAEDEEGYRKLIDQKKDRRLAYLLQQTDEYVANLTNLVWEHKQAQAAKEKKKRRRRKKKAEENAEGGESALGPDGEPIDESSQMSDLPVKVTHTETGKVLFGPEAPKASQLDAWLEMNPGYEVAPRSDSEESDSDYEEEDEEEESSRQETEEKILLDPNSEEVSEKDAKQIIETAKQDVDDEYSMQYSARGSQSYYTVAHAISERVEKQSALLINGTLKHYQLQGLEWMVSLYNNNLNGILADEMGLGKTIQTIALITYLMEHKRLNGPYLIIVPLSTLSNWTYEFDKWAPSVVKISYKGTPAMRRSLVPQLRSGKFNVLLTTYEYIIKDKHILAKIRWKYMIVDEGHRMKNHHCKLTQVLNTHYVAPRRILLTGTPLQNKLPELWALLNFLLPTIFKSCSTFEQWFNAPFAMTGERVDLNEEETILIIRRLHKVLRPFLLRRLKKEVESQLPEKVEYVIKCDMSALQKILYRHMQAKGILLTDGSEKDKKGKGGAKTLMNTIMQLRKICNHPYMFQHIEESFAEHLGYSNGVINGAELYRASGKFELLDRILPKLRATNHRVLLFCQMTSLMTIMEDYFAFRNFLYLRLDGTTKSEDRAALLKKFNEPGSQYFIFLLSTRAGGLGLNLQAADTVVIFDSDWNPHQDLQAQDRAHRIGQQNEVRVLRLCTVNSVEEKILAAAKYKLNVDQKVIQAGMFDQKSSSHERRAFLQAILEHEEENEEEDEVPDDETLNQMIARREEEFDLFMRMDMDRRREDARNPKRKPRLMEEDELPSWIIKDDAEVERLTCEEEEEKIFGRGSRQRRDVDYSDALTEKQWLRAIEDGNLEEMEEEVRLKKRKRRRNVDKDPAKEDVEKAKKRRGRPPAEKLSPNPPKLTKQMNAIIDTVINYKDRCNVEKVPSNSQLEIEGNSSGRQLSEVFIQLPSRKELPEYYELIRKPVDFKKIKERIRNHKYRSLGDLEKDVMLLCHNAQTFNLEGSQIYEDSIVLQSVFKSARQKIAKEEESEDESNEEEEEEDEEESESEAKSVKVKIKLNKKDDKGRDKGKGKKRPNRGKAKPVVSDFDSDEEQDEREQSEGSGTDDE

For the compound `Cc1ncsc1-c1ccc([C@H](C)NC(=O)[C@@H]2C[C@@H](O)CN2C(=O)[C@@H](c2cc(N3CCC(CN4CCC5(CC4)CC(C#CC(C)n4cc(-c6cc(-c7ccccc7O)nnc6N)cn4)C5)CC3)no2)C(C)C)cc1` (stereo partly drawn) [Compound 36, (2S,4R)-1-[(2R)-2-[3-(4-{[2-(3-{4-[3-amino-6-(2-hydroxyphenyl)pyridazin-4-yl]-1H-pyrazol-1-yl}but-1-yn-1-yl)-7-azaspiro[3.5]nonan-7-yl]methyl}piperidin-1-yl)-1,2-oxazol-5-yl]-3-methylbutanoyl]-4-hydroxy-N-[(1S)-1-[4-(4-methyl-1,3-thiazol-5-yl)phenyl]ethyl]pyrrolidine-2-carboxamide], the DC50 was below 2.5 nM and the Dmax is above 75%.
The compound `Cc1ncsc1-c1ccc([C@H](CC(=O)N2CCC(CN3CCC(O[C@H]4C[C@H](Oc5cc(N6C7CCC6CN(c6cc(-c8ccccc8O)nnc6N)C7)ccn5)C4)CC3)CC2)NC(=O)[C@@H]2C[C@@H](O)CN2C(=O)[C@@H](C(C)C)N2Cc3ccccc3C2=O)cc1` [Compound 37, (2S,4R)-4-hydroxy-N-[(1S)-1-[4-(4-methyl-1,3-thiazol-5-yl)phenyl]-3-oxo-3-[4-({4-[(1r,3r)-3-[(4-{3-[3-amino-6-(2-hydroxyphenyl)pyridazin-4-yl]-3,8-diazabicyclo[3.2.1]octan-8-yl}pyridin-2-yl)oxy]cyclobutoxy]piperidin-1-yl}methyl)piperidin-1-yl]propyl]-1-[(2R)-3-methyl-2-(1-oxo-2,3-dihydro-1H-isoindol-2-yl)butanoyl]pyrrolidine-2-carboxamide] came in with a DC50 of at least 30 nM.
As to `Cc1ncsc1-c1ccc([C@H](CC(=O)N2CCC(CN3CCC(O[C@H]4C[C@H](Oc5cc(N6C7CCC6CN(c6cc(-c8ccccc8O)nnc6N)C7)ccn5)C4)CC3)CC2)NC(=O)[C@@H]2C[C@@H](O)CN2C(=O)[C@H](C(C)C)N2Cc3ccccc3C2=O)cc1` [Compound 38, (2S,4R)-4-hydroxy-N-[(1S)-1-[4-(4-methyl-1,3-thiazol-5-yl)phenyl]-3-oxo-3-[4-({4-[(1r,3r)-3-[(4-{3-[3-amino-6-(2-hydroxyphenyl)pyridazin-4-yl]-3,8-diazabicyclo[3.2.1]octan-8-yl}pyridin-2-yl)oxy]cyclobutoxy]piperidin-1-yl}methyl)piperidin-1-yl]propyl]-1-[(2S)-3-methyl-2-(1-oxo-2,3-dihydro-1H-isoindol-2-yl)butanoyl]pyrrolidine-2-carboxamide], the DC50 was below 2.5 nM and the maximal degradation (Dmax) was above 75%.
For the compound `CC(C)[C@@H](C(=O)N1C[C@H](O)C[C@H]1C(=O)N[C@@H](C)c1ccc(-c2ccnn2C)cc1)c1cc(N2CCC(CN3CCC(CN4CCC5(CC4)CC(Oc4cc(N6C7CCC6CN(c6cc(-c8ccccc8O)nnc6N)C7)ccn4)C5)CC3)CC2)no1` [Compound 39, (2S,4R)-1-[(2R)-2-[3-(4-{[4-({2-[(4-{3-[3-amino-6-(2-hydroxyphenyl)pyridazin-4-yl]-3,8-diazabicyclo[3.2.1]octan-8-yl}pyridin-2-yl)oxy]-7-azaspiro[3.5]nonan-7-yl}methyl)piperidin-1-yl]methyl}piperidin-1-yl)-1,2-oxazol-5-yl]-3-methylbutanoyl]-4-hydroxy-N-[(1S)-1-[4-(1-methyl-1H-pyrazol-5-yl)phenyl]ethyl]pyrrolidine-2-carboxamide], the DC50 is below 2.5 nM and the greatest degradation seen (Dmax) was above 75%.
With `CC(C)[C@@H](C(=O)N1C[C@H](O)C[C@H]1C(=O)N[C@@H](C)c1ccc(-c2c(F)cnn2C)cc1)c1cc(N2CCC(CN3CCC(O[C@H]4C[C@H](Oc5cc(N6CCN(c7cc(-c8ccccc8O)nnc7N)CC6)ccn5)C4)CC3)CC2)no1` [Compound 40, (2S,4R)-N-[(1S)-1-[4-(4-fluoro-1-methyl-1H-pyrazol-5-yl)phenyl]ethyl]-4-hydroxy-1-[(2R)-3-methyl-2-{3-[4-({4-[(1r,3r)-3-[(4-{4-[3-amino-6-(2-hydroxyphenyl)pyridazin-4-yl]piperazin-1-yl}pyridin-2-yl)oxy]cyclobutoxy]piperidin-1-yl}methyl)piperidin-1-yl]-1,2-oxazol-5-yl}butanoyl]pyrrolidine-2-carboxamide], the DC50 was below 2.5 nM and the Dmax is above 75%.
